Measured values reported in paper PMC11191095, “QSAR Reveals Decreased Lipophilicity of Polar Residues Determines the Selectivity of Antimicrobial Peptide Activity” (ACS Omega, 2024).
Where a SMILES comes first, the peptide text is derived from it.

What was measured:
S. aureus (MRSA) USA300 = assay: microbe, parasite or virus in culture; assay type: cell-based, Staphylococcus aureus; settings: S. aureus (MRSA) USA300 (R)
Outline: (§1)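 Peptides 128→2 μg/mL, 2-fold series; inoculum ~5 × 10^5 CFU/mL from overnight culture (OD600 0.01, mixed 1:1). MHB non-cation-adjusted for bacteria, RPMI 1640 + 2% glucose for fungi. 37 °C, 20 h, OD600. MIC50/MIC90 at 50%/90% inhibition; n ≥ 3.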

P. aeruginosa PAO1 = assay: microbe, parasite or virus in culture; assay type: cell-based, Pseudomonas aeruginosa; settings: P. aeruginosa PAO1 (S)
Outline: as §1

[1] = MHB, 37 °C, 20 h, OD600, min. three biological repeats

CC[C@H](C)[C@H](NC(=O)[C@H](CCCCN)NC(=O)[C@H](CC(C)C)NC(=O)[C@H](C)NC(=O)[C@H](C)NC(=O)[C@H](CCCCN)NC(=O)[C@H](CC(C)C)NC(=O)[C@H](C)NC(=O)[C@@H](N)CCCCN)C(=O)NCC(N)=O [CPF-P3-10a] (H-KALKAALKIG-NH2)
Modal MIC (S. aureus (MRSA) USA300; [1]): > 128 µg/mL | Modal MIC (S. aureus (MRSA) USA300; shown in µM): > 122 µM | Modal MIC (P. aeruginosa PAO1; [1]): > 128 µg/mL | Modal MIC (P. aeruginosa PAO1; shown in µM): > 122 µM

CC[C@H](C)[C@H](NC(=O)[C@H](CCCCN)NC(=O)[C@H](CC(C)C)NC(=O)[C@H](C)NC(=O)[C@H](C)NC(=O)[C@H](CCCCN)NC(=O)[C@H](CC(C)C)NC(=O)[C@H](C)NC(=O)[C@@H](N)CCCCN)C(=O)NCC(=O)N[C@@H](C)C(=O)N[C@@H](CC(N)=O)C(N)=O [CPF-P3-12a] (H-KALKAALKIGAN-NH2)
Modal MIC (S. aureus (MRSA) USA300; [1]): > 128 µg/mL | Modal MIC (S. aureus (MRSA) USA300; shown in µM): > 103.8 µM | Modal MIC (P. aeruginosa PAO1; [1]): > 128 µg/mL | Modal MIC (P. aeruginosa PAO1; shown in µM): > 103.8 µM

CC[C@H](C)[C@H](NC(=O)[C@@H](N)Cc1c[nH]c2ccccc12)C(=O)N[C@@H](CCCCN)C(=O)N[C@@H](CO)C(=O)N[C@H](C(=O)N[C@@H](C)C(=O)N[C@@H](CCCCN)C(=O)N[C@@H](CCCCN)C(N)=O)[C@@H](C)O [Opis8a] (H-WIKSTAKK-NH2)
Modal MIC (S. aureus (MRSA) USA300; [1]): > 128 µg/mL | Modal MIC (S. aureus (MRSA) USA300; shown in µM): > 133.2 µM | Modal MIC (P. aeruginosa PAO1; [1]): > 128 µg/mL | Modal MIC (P. aeruginosa PAO1; shown in µM): > 133.2 µM

CC[C@H](C)[C@H](N)C(=O)N[C@@H](CCCNC(=N)N)C(=O)NCC(=O)N[C@@H](Cc1ccc(O)cc1)C(=O)N[C@@H](CCCCN)C(=O)NCC(=O)NCC(=O)N[C@@H](Cc1ccc(O)cc1)C(=O)N[C@@H](CS)C(=O)N[C@@H](CCCCN)C(N)=O [Os(3-12)a] (H-IRGYKGGYCK-NH2)
Modal MIC (S. aureus (MRSA) USA300; [1]): > 128 µg/mL | Modal MIC (S. aureus (MRSA) USA300; shown in µM): > 112 µM | Modal MIC (P. aeruginosa PAO1; [1]): > 128 µg/mL | Modal MIC (P. aeruginosa PAO1; shown in µM): > 112 µM

CC(C)C[C@H](NC(=O)[C@H](CCCCN)NC(=O)[C@H](CO)NC(=O)[C@H](CCCCN)NC(=O)[C@@H](N)Cc1c[nH]c2ccccc12)C(=O)N[C@@H](C)C(=O)N[C@@H](CCCCN)C(=O)N[C@@H](CCCCN)C(N)=O [PS-PB-8a] (H-WKSKLAKK-NH2)
Modal MIC (S. aureus (MRSA) USA300; [1]): > 128 µg/mL | Modal MIC (S. aureus (MRSA) USA300; shown in µM): > 127.2 µM | Modal MIC (P. aeruginosa PAO1; [1]): > 128 µg/mL | Modal MIC (P. aeruginosa PAO1; shown in µM): > 127.2 µM

CC(C)C[C@H](NC(=O)[C@H](CCCCN)NC(=O)[C@H](CO)NC(=O)[C@H](CCCCN)NC(=O)[C@H](Cc1c[nH]c2ccccc12)NC(=O)[C@H](C)NC(=O)[C@H](CCCCN)NC(=O)[C@@H](N)CCCCN)C(=O)N[C@@H](C)C(=O)N[C@@H](CCCCN)C(=O)N[C@@H](CCCCN)C(=O)N[C@@H](CC(C)C)C(=O)N[C@@H](CCCNC(=N)N)C(=O)N[C@@H](C)C(=O)N[C@@H](CCCCN)C(=O)NCC(=O)N[C@@H](CCCCN)C(N)=O [PS-PB-14a] (H-KKAWKSKLAKKLRAKGK-NH2)
Modal MIC (S. aureus (MRSA) USA300; [1]): > 128 µg/mL | Modal MIC (S. aureus (MRSA) USA300; shown in µM): > 63.8 µM | Modal MIC (P. aeruginosa PAO1; [1]): > 128 µg/mL | Modal MIC (P. aeruginosa PAO1; shown in µM): > 63.8 µM
